Measured values as given in ChEMBL document CHEMBL1201862, “PubChem BioAssay data set” (2004).
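Results reflect a 48-hour exposure of cells in 96-well plates to compound at five concentrations. GI50 = concentration required for 50% inhibition of growth.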 The source made the active and inactive calls. Cut-off read from the data, not from the text of the source: active = GI50 up to about 1.1 µM and inactive = higher.

Assays:
Experiment in all cases: growth of human tumour cells (NCI), 48 h
SF-268 = system: SF-268
ACHN = system: ACHN
A498 = system: A498
U-251 = system: U-251
KM12 = system: KM12
786-0 = system: 786-0
HCT-15 = system: HCT-15
NCI-H460 = system: NCI-H460
NCI-H23 = system: NCI-H23
EKVX = system: EKVX
PC-3 = system: PC-3
SNB-19 = system: SNB-19
CAKI-1 = system: CAKI-1
DU-145 = system: DU-145
SN12C = system: SN12C
CCRF-CEM = system: CCRF-CEM
RXF 393 = system: RXF 393
RPMI-8226 = system: RPMI-8226
NCI-H522 = system: NCI-H522
MDA-MB-231 = system: MDA-MB-231

Row | SMILES | GI50 (SF-268) | GI50 (ACHN) | GI50 (A498) | GI50 (U-251) | GI50 (KM12) | GI50 (786-0) | GI50 (HCT-15) | GI50 (NCI-H460) | GI50 (NCI-H23) | GI50 (EKVX) | GI50 (PC-3) | GI50 (SNB-19) | GI50 (CAKI-1) | GI50 (DU-145) | GI50 (SN12C) | GI50 (CCRF-CEM) | GI50 (RXF 393) | GI50 (RPMI-8226) | GI50 (NCI-H522) | GI50 (MDA-MB-231)
1 | CN1CCN(CCCN2c3ccccc3Sc3ccc(C(F)(F)F)cc32)CC1 | 12.4 µM (inactive) | 11.9 µM (inactive) | 13.6 µM (inactive) | 8.34 µM (inactive) | 5.14 µM (inactive) | 7.93 µM (inactive) | 7.1 µM | 3.86 µM (inactive) | 14.4 µM (inactive) | 14.5 µM (inactive) | 4.72 µM (inactive) | 15.2 µM (inactive) | 10.9 µM (inactive) | 16.4 µM (inactive) | 12.2 µM (inactive) | – | – | – | – | –
2 | Nc1ccc(C(=O)N/C(=C\c2ccc3c(c2)OCO3)c2nc3ccc4c(c3[nH]2)C(=O)c2ccccc2C4=O)cc1 | 12.4 µM (inactive) | 13.9 µM (inactive) | 14.4 µM (inactive) | 33 µM (inactive) | 17.8 µM (inactive) | 21.2 µM (inactive) | 42.2 µM | 26.4 µM (inactive) | 14.4 µM (inactive) | 31.8 µM (inactive) | – | 30 µM (inactive) | 14.7 µM (inactive) | – | 30.1 µM (inactive) | 2.26 µM (inactive) | 10.5 µM (inactive) | 3.68 µM (inactive) | 6.75 µM (inactive) | –
3 | C[C@]12CCC3[C@@H](CC[C@@H]4c5nonc5CC[C@]34C)C1CCC(=O)N2 (stereo not given in full) | > 100 µM (inactive) | > 100 µM (inactive) | > 100 µM (inactive) | > 100 µM (inactive) | > 100 µM (inactive) | > 100 µM (inactive) | > 100 µM | > 100 µM (inactive) | > 100 µM (inactive) | 68.9 µM (inactive) | – | > 100 µM (inactive) | > 100 µM (inactive) | – | > 100 µM (inactive) | > 100 µM (inactive) | > 100 µM (inactive) | 67.9 µM (inactive) | 56.1 µM (inactive) | –
4 | CCCc1c(OC)c(=O)c2c(OC)cc(OC)c3c4c(OC)cc(OC)c5c(=O)c(OC)c(CCC)c(c1c23)c54 | 16.1 µM (inactive) | 15.8 µM (inactive) | 19.1 µM (inactive) | 16 µM (inactive) | 14.6 µM (inactive) | 13.1 µM (inactive) | 12.8 µM | 13.7 µM (inactive) | 14.9 µM (inactive) | 11.8 µM (inactive) | – | 19.8 µM (inactive) | 14.6 µM (inactive) | 12.2 µM (inactive) | 18.6 µM (inactive) | – | 20.7 µM (inactive) | – | – | 4.38 µM (inactive)
5 | COc1ccc(C(=O)OC2C=COC(C)C2OC(=O)c2ccc(OC)cc2)cc1 (stereo not given) | 15.8 µM (inactive) | 42.4 µM (inactive) | > 100 µM (inactive) | 36.8 µM (inactive) | 19.1 µM (inactive) | 28.8 µM (inactive) | 14.9 µM | 40.7 µM (inactive) | 16.4 µM (inactive) | 36.9 µM (inactive) | – | 41.5 µM (inactive) | 28.8 µM (inactive) | – | 23.3 µM (inactive) | 7 µM (inactive) | 14.6 µM (inactive) | 8.22 µM (inactive) | 16.5 µM (inactive) | –
6 | Cc1cccc(N/C(=C(/C(Cl)=C(Cl)Cl)[N+](=O)[O-])n2nnc3ccccc32)c1 | 15.9 µM (inactive) | 24.3 µM (inactive) | 12.5 µM (inactive) | 14 µM (inactive) | 14.9 µM (inactive) | 19.5 µM (inactive) | 18.4 µM | 20.7 µM (inactive) | 16.8 µM (inactive) | 18.6 µM (inactive) | 16.6 µM (inactive) | 18.2 µM (inactive) | 17.5 µM (inactive) | – | 15.5 µM (inactive) | 2.96 µM (inactive) | – | 13.7 µM (inactive) | – | 13.3 µM (inactive)
7 | CCOC(=O)c1c(O)cc(=O)[nH]c1N1CCOCC1 | – | > 100 µM (inactive) | > 100 µM (inactive) | > 100 µM (inactive) | > 100 µM (inactive) | > 100 µM (inactive) | > 100 µM | > 100 µM (inactive) | > 100 µM (inactive) | > 100 µM (inactive) | > 100 µM (inactive) | > 100 µM (inactive) | > 100 µM (inactive) | > 100 µM (inactive) | > 100 µM (inactive) | > 100 µM (inactive) | – | > 100 µM (inactive) | – | –
